Active and inactive are the calls of the source.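 The calls were made as follows: active = compounds giving half or more protection of infected cells from virus-caused growth loss, again on retest; inactive = the rest.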 Where a SMILES comes first, the peptide text is derived from it.
System: CEM cells HIV-1 protection, formazan growth assay
Assay: NCI AIDS Antiviral Assay
Conditions: for IC50: measured here: growth of uninfected CEM cells
Summary of the method: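 Category rules: moderately active means at least 50% protection on retest, and confirmed active means 100% protection reproducibly. The underlying data came from a formazan growth assay in HIV-1-infected CEM cells.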

SMILES	EC50 [µM]	IC50 [µM]	outcome
CO/N=C(\C(=O)Nc1cncs1)c1csc(N)n1	> 200	> 200	
C[N+]1([O-])C2CCC1CC(OC(=O)C(CO)c1ccccc1)C2 (configuration not stated)	> 200	> 200	
Cn1nc(-c2ccccc2)c(C(=O)/C=C/c2ccccc2)c(N2CCCC2)c1=O	12.6	52.5	
CCc1cccc(C)c1NC(=O)C1=C(C)NC(C)=C(C(=O)Nc2c(C)cccc2CC)C1c1ccc2c(c1)OCO2	> 24.5	> 24.5	
O=C(Nc1ccc(Cl)cc1C(F)(F)F)C(=O)C1CCCS1(=O)=O (configuration not stated)			inactive
C=CCC1(C)CCCCC1(O)CS(=O)c1ccccc1 (configuration not stated)			inactive
CC(C)c1c(O[Si](C(C)C)(C(C)C)C(C)C)c2c3c(ccc4c3c1OC4(C)C)C(C)CC2 (configuration not stated)	> 200	> 200	
CCN(CC)CCNCC(O)CN1CCN(C)CC1 (configuration not stated)	> 200	155	
N=C1N=C(N)c2cc3c(cc21)SCCSCCCSCCS3	> 50.1	8.51	
CC1CC(C)CC(C)C(O)/C(C#N)=C/C=C/CC(C2CCCC2C(=O)O)OC(=O)CC(O)C(C)C1 (configuration not stated)	> 2.57	0.00575	
O=C1Cc2c([nH]c3c(Br)cccc23)-c2ccccc2N1	> 200	29.5	
FC(F)C(F)(F)N1c2ccccc2Sc2ccccc21	> 200	72.4	
CN(C)CCCNC(=O)c1cc(NC(=O)c2cc(NC(=O)c3cc(NC(=O)CCCn4ccc(CO)c4CO)cn3C)cn2C)cn1C	> 20	0.38	
O=C1CC(C(=O)N2CCCCC2)n2c(=O)n(-c3ccccc3)c(=O)n2C1 (configuration not stated)	> 200	> 200	
COc1cc(CC2Cc3cccc(=O)c(O)c3C(=O)O2)cc(OC)c1OC (configuration not stated)	> 120	17.4	
CC(=O)c1ccc(NCc2cc(O)ccc2O)cc1	> 200	10.7	
CCOC(=O)C(=CNC(=S)Nc1ccc(Cl)c(Cl)c1)C(=O)OCC	> 200	34.7	
Cc1cc(N)ccc1C=O	> 200	> 200	
C=CC1(CC)/C(=N\O)C(CC)(CC)C(=O)N1O (configuration not stated)	> 1050	> 1050	
COc1ccc2c(c1)[n+]([O-])c(/C(C)=N/NC(=O)c1ccccc1O)c(C)[n+]2[O-]	> 245	> 245	
CC(=O)Nc1ccc(CNc2cc(=O)n(C)c(=O)[nH]2)cc1	> 200	> 200	
COc1ccc(N2NC(c3ccccc3)(c3ccccc3)C(C)C2=O)cc1 (configuration not stated)	> 200	11	

SMILES	EC50 [µM]	IC50 [µM]	outcome
O=C(/C=C\c1ccc(-c2ccccc2)cc1)c1cccs1	> 200	11.2	
O=S(=O)(O)c1cc(O)c(N=NC2S(=O)(=O)OCCOS2(=O)=O)c2ccccc12	> 200	77.6	
COc1ccc(N2C(=O)C(=O)N(c3ccccc3[N+](=O)[O-])C2=S)cc1	> 200	27.5	
O=S(O)CCCCSSCC(O)CO (configuration not stated)	> 200	2.63	
O=C1C=C(N2CCCC2)c2cc(N3CCCC3)ncc2C1=O			inactive
O=C1c2ccccc2C(=O)C1C(c1ccc(F)cc1)C1C(=O)c2ccccc2C1=O	> 46.8	36.3	
COC(=O)c1ccc(-c2nc(C#N)c(N)o2)cc1	> 200	> 200	
COC(=O)C1=C(OC)C(C(=O)OC)C23CCCC12C(C(=O)OC)C(OC)C3C(=O)OC (configuration not stated)	> 135	> 135	
FC1(F)SC2C3CCC(C3)C2C1(F)F (configuration not stated)			inactive
CCOC(=O)c1ccc(N2C(=O)Cc3ccccc3C2=O)cc1			inactive
O=C(CN1CCNCCN(CC(=O)N2CCCCC2)CCNCC1)N1CCCCC1	> 200	10.5	
N#C[C@H](C(=O)c1ccccc1F)c1nc2ccccc2[nH]1	170	> 200	
Cn1c(=O)c2c3ccccc3n(C)c2n(C)c1=O	> 200	> 200	
CC(C)OP(=O)(OC(C)C)c1nc(-c2ccccc2)n(-c2ccc([N+](=O)[O-])cc2)n1	> 302	219	
O=C1CC(c2ccccc2)=NO1	> 200	> 200	
NC(CSS(=O)(=O)O)=NCCc1ccccc1	> 200	110	
O=NNc1ccc(SSc2ccc(NN=O)cc2)cc1	> 200	79.4	
Cc1c(C(=N)C(C#N)C#N)c(=N)oc2c1ccc1ccccc12	> 200	26.9	
C=CCNC1=C(C(=O)OCC)C(=O)CO1	> 1170	> 1170	
COc1ccc(/C(C#N)=C/c2cccc([N+](=O)[O-])c2)cc1	> 200	> 200	
CC1C(=O)c2c(O)cc(O)cc2O[C@@H]1C (some centres not stated)	> 200	> 200	
O=c1[nH]c(=O)n(C2CC(O)C(COP(=O)(OCc3ccc([N+](=O)[O-])o3)N3CCCCC3)O2)cc1F (configuration not stated)	> 200	0.17	

SMILES	EC50 [µM]	IC50 [µM]	outcome
C(=C/c1ccnc2ccccc12)/c1cccs1	0.0631	47.9	
O=c1c2ccccc2c(=O)n2n1C1C=CC2C1	> 44.7	> 44.7	
N#C/C(=C\c1cc(O)c(O)c([N+](=O)[O-])c1)C(=O)NCCCNC(=O)/C(C#N)=C/c1cc(O)c(O)c([N+](=O)[O-])c1	> 200	72.4	
CCOC(=O)C1C(c2ccc(Cl)cc2Cl)NC(c2ccc(C)cc2)C(C(=O)OC)S1(=O)=O (configuration not stated)	> 14.5	> 14.5	
Oc1ccc(S)cc1CNC1CCCCC1	> 200	13.2	
C#CCNC(=O)NCCCC(NC(C)=O)C(=O)NCc1ccccc1 (configuration not stated)			inactive
N#CC1=C(S)N(C2OC(CO)C(O)C(O)C2O)C(c2ccccc2)=CC1c1cccs1 (configuration not stated)	> 200	27.5	
CCOC(=O)Cc1ccc2c(c1O)C(=O)c1c(ccc(CC(=O)OCC)c1O)C2=O			inactive
Cc1ccc(CN=C(N)CSS(=O)(=O)O)cc1C	> 200	> 100	
CCOP(=O)(CC(C)P(=O)(OCC)OCC)OCC.C[CH2][Sn]([Cl])([Cl])[CH2]C (configuration not stated)	> 447	1.7	
CCOCC(=O)N[C@H]1CCc2cc(OC)c(OC)c(OC)c2-c2ccc(SC)c(=O)cc21	> 0.2	0.00115	
COP(=O)(N/N=C/C(=O)O)OC	> 1260	> 1260	
COC(=O)c1nc(-c2ccc3c(n2)C(=O)C(N)=C(OC)C3=O)c(N)c(-c2ccc(OC)c(OC)c2O)c1C	> 10	1.66	
C[C@]12CC[C@H]3[C@@H](CCC4=CC(=O)C=C[C@@]43O)[C@@H]1CCC2=O	> 200	> 200	
COC1/C=C/OC2(C)Oc3c(C)c(O)c4c(O)c(c(/C=N/N5CCCCC5)c(O)c4c3C2=O)NC(=O)C(C)=C/C=C/C(C)C(O)C(C)C(O)C(C)C(OC(C)=O)C1C (configuration not stated)	> 200	10.2	
Cn1c(=O)c2c3ccccc3c(C(=O)c3ccccc3)n2c2ccccc21	> 51.3	3.09	
CCc1c(O)nc(Nc2nc3ccccc3[nH]2)[nH]c1=O	> 200	> 200	
COC1=CC(=O)C(O)=C(CC2(C)C(C)CCC3(C)C2CCCC3(C)C)C1=O (configuration not stated)	> 95.5	6.46	
Cc1nc(N)c(N2CCN(C(=O)O)CC2)c(=O)[nH]1	> 200	> 200	
CC12CC3CC/C(=N\O)C(C1)C3(N1CCOCC1)C/C2=N/O (configuration not stated)	> 200	> 200	
CCCCCCCCCCCCOC1C(COCCN2CCCCC2)OC2OC(C)(C)OC21 (configuration not stated)	> 200	2.63	
CC1(C)CCCCCC(C)(CCCCCCCCCCCO)C1=O (configuration not stated)	> 200	30.2	

SMILES	EC50 [µM]	IC50 [µM]	outcome
CCCn1c(=O)c2ccccc2[n+]2c(-c3ccc([N+](=O)[O-])cc3)csc12	> 200	> 100	
CC(C)OP(=O)(OC(C)C)C1=NN(c2ccc([N+](=O)[O-])cc2)C(N)(N)S1	> 617	135	
O=C(/C=C/c1ccc(O)c(O)c1)O[C@@H](C(=O)O)[C@@H](OC(=O)/C=C/c1ccc(O)c(O)c1)C(=O)O	> 200	17	
N#CC1(C#N)C(c2ccccc2)C=CC(c2ccc([N+](=O)[O-])cc2)C1(C#N)C#N (configuration not stated)	> 200	3.55	
COc1cc(O)c(C(=O)/C=C/c2ccc(Cl)c(Cl)c2)c(OC)c1	> 200	3.02	
Cc1ccc(S(=O)(=O)NC2CCCCO2)cc1 (configuration not stated)	> 708	> 708	
O=C1CCCC(=O)N1n1c(Cc2ccccc2)n[nH]c1=O	> 200	> 200	
CC(C)CC(NC(=O)CN)C(=O)NC(C)C(=O)NC(C)C(=O)NC(CO)C(=O)NC(C)C(N)=O (configuration not stated) (H-GLAASA-NH2; configuration not given here)			inactive
CCCCCCC1CCC2CCCC(C)N12 (configuration not stated)	> 162	> 162	
N/C(=N\N=C/c1ccc(OCc2ccccc2)cc1)NO			inactive
O=C1CS(=O)(=O)C(c2cccc(F)c2)N1N1C(=O)CS(=O)(=O)C1c1cccc(F)c1 (configuration not stated)	> 200	> 200	
Cc1ccnc(NC(=O)Nc2ccc(C)cc2[N+](=O)[O-])c1	> 200	> 200	
CC1=C(C(=O)NNC(=O)C[n+]2ccccc2)CC(C(=O)NNC(=O)C[n+]2ccccc2)=C(C)N1	> 200	> 200	
COc1cccc(CCCCCCCC(=O)O)c1	> 200	> 200	
CCC(C)c1c(NS(=O)(=O)c2ccc(C)cc2)o[nH]c1=O (configuration not stated)	> 200	> 200	
CC1=C(C(=O)OC2CC3CCC2(C)C3(C)C)C2Nc3ccccc3N(C)C2O1 (configuration not stated)	> 200	6.46	
Cc1c([N+](=O)[O-])c(=O)oc2c(C)c3occc(=O)c3cc12	> 6.92	> 6.92	
CCO/C(CCn1[nH]c(=O)c(Cl)c(Cl)c1=O)=N\NC(=O)C(=O)NN	> 7.08	> 7.08	
C/C(=N\N=C(/[Se])N1CCCCCC1)c1ccccn1	> 81.3	0.107	
C=C1CC/C=C(/C(=O)O)CC[C@H]2[C@@H]1CC2(C)C	> 200	178	
O=C(NP1(=O)NCc2ccccc2CN1)OC1CCCCC1	> 288	> 288	
O=C(Nc1ccc(F)cc1)N(C1CCCCC1)C1CCCCC1	> 200	81.3	

From PubChem BioAssay AID179 (DTP/NCI, 2004)
